Data taken from patent US20220175734A1, “USING PARASYMPATHOMIMETIC DRUGS ALONE OR, IN COMBINATION WITH ONE OR MORE ALPHA AGONISTS IN PSEUDOPHAKIC PATIENTS, TO CREATE MULTI-FOCALITY” (Visus Therapeutics, Inc., priority 2019, published 2022).
“And” between values parts separate entries of the source, which are not always exact repeats. Equal values may be shown once. One block for each molecule: values may come before it.

Experiments:
[1] = test system: naturally emmetropic and presbyopic subjects; experiment: Example 13 crossover trial, combined vs separate carbachol and brimonidine drops: near visual acuity (Rosenbaum chart, Jaeger notation) (Table 13); type: in vivo, human; conditions: for NVA 1-h / NVA 2-h / NVA 4-h / NVA 8-h / NVA Pre-treatment: mean ± SD, ten subjects; for NVA Pre-treatment: before treatment
Excerpt: (§1) Participants were randomly selected volunteers. […] None of the patients included in the study had received any topical medication that could cause pupil mydriasis or miosis. […] All procedures followed were in accordance with the ethical standards of the responsible committee on human experimentation.
(§2) The 3% carbachol drops included 50 ppm of benzalkonium chloride.

[2] = test system: naturally emmetropic and presbyopic subjects; experiment: Example 13 crossover trial: pupil size (Colvard infrared pupilometer) (Table 13); type: in vivo, human; conditions: for PS 1-h / PS 2-h / PS 4-h / PS 8-h / PS Pre-treatment: mean pupil size, ten subjects; for PS Pre-treatment: before treatment
Excerpt: as §1, §2

[3] = test system: patients suffering from presbyopia; experiment: Example 4 preliminary evaluation: near visual acuity after pilocarpine alone or with brimonidine (Table 1 dosages, FIG. 1); type: in vivo, human; conditions: individual patients
Excerpt: Initially, 10 patients were selected for preliminary evaluation. […] All six dosages provided some (varying) initial improvement in visual acuity. However, the effect of formulations containing pilocarpine alone appears to wear out fairly quickly whereas it takes longer time for effects of formulations containing both drugs to wear out.

[4] = test system: patients suffering from presbyopia; experiment: Table 11: pupil diameter after pilocarpine alone or pilocarpine plus brimonidine; type: in vivo, human; conditions: individual patients
presbyopia subjects [5] = experiment: Example 8 dose range studies: adverse symptoms, tolerability and satisfaction survey; type: in vivo, human
Excerpt: The survey asked the patients whether they would use the drops again.

[6] = Stability of pilocarpine at neutral pH; type: physicochemical; conditions: needs about pH 5
presbyopia subjects [7] = experiment: Example 8 dose range studies of carbachol and pilocarpine with or without brimonidine: near LogMAR visual acuity
Method: Dose range studies were performed for carbachol and pilocarpine.
Both Groups 1 and 2 received the same pre- and post-treatment work-up and measurements: Age, gender, initial pupil size, and near vision acuity (NVA) were documented. Subjects' NVA was measured post treatment at 1, 2, 4, and 8 hours, at the same room illumination Any adverse symptoms and subject satisfaction with near and distance vision were documented.

[8] = test system: naturally emmetropic and presbyopic subjects; conditions: combination, separate, brimonidine alone, carbachol alone; FIG. 11
Method: Participants were volunteers selected at random.
The study used standard Snellen projector chart to measure distance visual acuity. Near visual acuity was assessed at 40 cm using Jaeger (J) Eye Chart. Statistical analysis was performed using the Student's t-test and p value of less than 0.05 was considered statistically significant. Data was expressed as mean, range, and standard deviation (SD).

emmetropic presbyopes = conditions: Group 1
Excerpt: (§3) The study evaluated in a blind study the efficacy of using of a parasympathomimetic drug of different concentrations together with an alpha agonist to create optically beneficial miosis to temporarily treat different types of presbyopia (emmetropic, myopic and hyperopic).
(§4) One hundred and seventy seven presbyopic subjects with a mean age of 49.8±3.9 years (range 41-57 years); 96 males and 81 females were recruited in this study. The participants in the study all gave written informed consent. […] During the study, the subjects were closely monitored and regularly asked to report on any ocular, systemic, or physiological reactions they experienced. […]
(§5) Initial pupil size and both near and distance visual acuities were documented before treatment and at 1, 2, 4, 8 and 10 hours after treatment at the same room illumination. Subjects were monitored and subjected to complete ocular examination including visual acuity evaluation and slit-lamp biomicroscopy after one week of treatment and monthly during the first three months to evaluate dosage, satisfaction, adverse effects and complications (for instance, retinal detachment, pigment dispersion, posterior synechiae and intraocular inflammation). […] Distance visual acuity was measured using the standard Snellen projector chart. […] Any adverse symptoms and subject satisfaction with near and distance vision were also monitored. […]

myopic presbyopes = conditions: Group 2
Excerpt: as §3, §4, §5

presbyopic subjects = conditions: subjects receiving brimonidine drops
Excerpt: One hundred and seventy seven presbyopic subjects with a mean age of 49.8±3.9 years (range 41-57 years); 96 males and 81 females were recruited in this study. The participants in the study all gave written informed consent. […] All subjects were in good physical and ocular health and completed a questionnaire to ascertain any contraindications for participation or predisposition to complications (e.g. heart or respiratory conditions, migraines, high myopia, ocular or systemic medications, or ocular surgeries). […] The examination screened for contraindications to the drugs, susceptibility to retinal detachment, ocular pathology, or peripheral retinal degeneration. […] During the study, the subjects were closely monitored and regularly asked to report on any ocular, systemic, or physiological reactions they experienced. […]
Initial pupil size and both near and distance visual acuities were documented before treatment and at 1, 2, 4, 8 and 10 hours after treatment at the same room illumination. Subjects were monitored and subjected to complete ocular examination including visual acuity evaluation and slit-lamp biomicroscopy after one week of treatment and monthly during the first three months to evaluate dosage, satisfaction, adverse effects and complications (for instance, retinal detachment, pigment dispersion, posterior synechiae and intraocular inflammation). […]

hyperopic presbyopes = experiment: Example 6 masked study: near visual acuity (Jaeger Eye Chart), Group 3, both eyes (Tables 9, 10)
Excerpt: as §3, §4, §5

Structure (SMILES): C[N+](C)(C)CCOC(N)=O [3% carbachol alone, carbachol]
- mean near visual acuity (NVA) ([1]; 1 h post-treatment): 5.5 ± 1 J
- mean near visual acuity (NVA) ([1]; 2 h post-treatment): 5.9 ± 0.8 J
- mean near visual acuity (NVA) ([1]; 4 h post-treatment): 7 ± 1.2 J
- mean near visual acuity (NVA) ([1]; 8 h post-treatment): 7.5 ± 1 J
- mean near visual acuity (NVA) ([1]; before treatment (baseline)): 8.6 ± 1.5 J
- mean near visual acuity (NVA) (target) ([1]; hours 1-8, Snellen fraction, FIG. 25): never achieved an NVA of ≥20/40
- NVA 1-h ([1]; 1 h post-treatment): 5.5 ± 1 J
- NVA 2-h ([1]; 2 h post-treatment): 5.9 ± 0.8 J
- NVA 4-h ([1]; 4 h post-treatment): 7 ± 1.2 J
- NVA 8-h ([1]; 8 h post-treatment): 7.5 ± 1 J
- NVA Pre-treatment [1]: 8.6 ± 1.5 J
- mean pupil size (PS) ([2]; 1 h post-treatment): 2.8±0.3 mm
- mean pupil size (PS) ([2]; 2 h post-treatment): 3±0.3 mm
- mean pupil size (PS) ([2]; 4 h post-treatment): 3.5±0.3 mm
- mean pupil size (PS) ([2]; 8 h post-treatment): 4±0.3 mm
- mean pupil size (PS) ([2]; before treatment (baseline)): 4.3±0.5 mm
- mean pupil size (target) ([2]; hours 1-8, FIG. 24): never achieved the target pupil size
- PS 1-h ([2]; 1 h post-treatment): 2.8 ± 0.3 mm
- PS 2-h ([2]; 2 h post-treatment): 3 ± 0.3 mm
- PS 4-h ([2]; 4 h post-treatment): 3.5 ± 0.3 mm
- PS 8-h ([2]; 8 h post-treatment): 4 ± 0.3 mm
- PS Pre-treatment [2]: 4.3 ± 0.5 mm

Structure (SMILES): CC[C@@H]1C(=O)OC[C@@H]1Cc1cncn1C [Pilo Alone]
- nVA(j) 1 hr ([3]; Pilo 0.5%): 3 j (2×) and 6 j and 5 j
- nVA(j) 2 hrs ([3]; Pilo 0.5%): 5 j (2×) and 3 j (2×)
- nVA(j) 4 hrs ([3]; Pilo 0.5%): 5 j (3×) and 3 j
- nVA(j) 1 hr ([3]; Pilo 1%): 3 j (2×) and 2 j and 8 j
- nVA(j) 2 hrs ([3]; Pilo 1%): 3 j and 2 j (2×) and 8 j
- nVA(j) 4 hrs ([3]; Pilo 1%): 5 j (2×) and 3 j and 10 j
- Pre-Treatment Near Va ([3]; before treatment): 6 j (4×) and 5 j (4×) and 8 j (2×) and 10 j and 3 j
- pupil 1 hr ([4]; Pilo 0.5%): 2.5 and 3.8 and 3 (2×)
- pupil 2 hrs ([4]; Pilo 0.5%): 3 and 4 and 2.5 and 3.3
- pupil 4 hrs ([4]; Pilo 0.5%): 3.3 and 4 and 3 and 4.2
- pupil 1 hr ([4]; Pilo 1%): 2.5 (2×) and 1.5 and 3
- pupil 2 hrs ([4]; Pilo 1%): 3 (2×) and 1.5 and 2.5
- pupil 4 hrs ([4]; Pilo 1%): 4 (2×) and 2.5 and 3
- pupil 4 hrs ([4]; Pilo […]): 4
- Pre-Treatment Pupil Diam O.S. ([4]; before treatment, left eye): 4 (2×) and 4.3 and 3.5 (2×) and 5 and 3.9 and 3 and 4.5 (3×) and 5.4
- Pre-Treatment Pupil Diam O.D. ([4]; before treatment, right eye): 4 (3×) and 3.5 (2×) and 5 and 4.3 and 3 and 4.5 (3×) and 5.5

- stability at neutral pH [6]: unstable at neutral pH
Structure (SMILES): CC[C@@H]1C(=O)OC[C@@H]1Cc1cncn1C [pilocarpine]
- burning (presbyopia subjects [5]; in vivo): burned
- onset of effect (presbyopia subjects [7]; pilocarpine vs carbachol): more immediate effect
- duration (presbyopia subjects [7]; pilocarpine vs carbachol, in words): shorter duration

- mild burning sensation, number of subjects (presbyopic subjects): 10 subjects
Structure (SMILES): Brc1c(NC2=NCCN2)ccc2nccnc12 [Brimonidine 0.2%, brimonidine]
- mean change in near visual acuity (J), comparison of all groups [8]: the least
- difference in mean NVA before treatment vs any time point after treatment ([1]; P>0.05): no statistically significant difference
- NVA 1-h ([1]; 1 h post-treatment): 7.7 ± 1.3 J
- NVA 2-h ([1]; 2 h post-treatment): 8.2 ± 1.3 J
- NVA 4-h ([1]; 4 h post-treatment): 8.5 ± 1.4 J
- NVA 8-h ([1]; 8 h post-treatment): 8.6 ± 1.5 J
- NVA Pre-treatment [1]: 8.6 ± 1.5 J
- difference in mean PS before treatment vs any time point after treatment ([2]; P>0.05): no statistically significant difference
- miotic effect ([2]; mainly first hour after instillation, light luminance, not statistically significant (P>0.05)): mild miotic effect
- PS 1-h ([2]; 1 h post-treatment): 3.95 ± 0.5 mm
- PS 2-h ([2]; 2 h post-treatment): 4.2 ± 0.4 mm
- PS 4-h ([2]; 4 h post-treatment): 4.3 ± 0.5 mm
- PS 8-h ([2]; 8 h post-treatment): 4.3 ± 0.5 mm
- PS Pre-treatment [2]: 4.3 ± 0.5 mm
- effect on pupil size or NVA ([2]; with 50 ppm BAK): virtually no effect
- difference in mean NVA before treatment vs any time point after treatment (emmetropic presbyopes): No statistically significant difference
- difference in mean NVA before treatment vs any time point after treatment (myopic presbyopes): No statistically significant difference
- difference in mean NVA before treatment vs any time point after treatment (hyperopic presbyopes): No statistically significant difference
- synergy (presbyopia subjects [7]; in vivo): synergistic with both carbachol and pilocarpine

Structure (SMILES): C[N+](C)(C)CCOC(N)=O [carbachol]
- tolerability / discomfort vs carbachol concentration (presbyopia subjects [5]; over seven days, FIG. 15): caused some increased discomfort
- duration (presbyopia subjects [7]; in vivo): 8 h
